{"source": "ChEMBL document CHEMBL3751785", "about": "“Development and structural analysis of adenosine site binding tankyrase inhibitors” (Bioorg Med Chem Lett, 2016)", "key": {"[1]": {"target": "T1, Poly [ADP-ribose] polymerase tankyrase-1 (Homo sapiens, UniProt O95271)", "T1 sequence (O95271 whole entry)": "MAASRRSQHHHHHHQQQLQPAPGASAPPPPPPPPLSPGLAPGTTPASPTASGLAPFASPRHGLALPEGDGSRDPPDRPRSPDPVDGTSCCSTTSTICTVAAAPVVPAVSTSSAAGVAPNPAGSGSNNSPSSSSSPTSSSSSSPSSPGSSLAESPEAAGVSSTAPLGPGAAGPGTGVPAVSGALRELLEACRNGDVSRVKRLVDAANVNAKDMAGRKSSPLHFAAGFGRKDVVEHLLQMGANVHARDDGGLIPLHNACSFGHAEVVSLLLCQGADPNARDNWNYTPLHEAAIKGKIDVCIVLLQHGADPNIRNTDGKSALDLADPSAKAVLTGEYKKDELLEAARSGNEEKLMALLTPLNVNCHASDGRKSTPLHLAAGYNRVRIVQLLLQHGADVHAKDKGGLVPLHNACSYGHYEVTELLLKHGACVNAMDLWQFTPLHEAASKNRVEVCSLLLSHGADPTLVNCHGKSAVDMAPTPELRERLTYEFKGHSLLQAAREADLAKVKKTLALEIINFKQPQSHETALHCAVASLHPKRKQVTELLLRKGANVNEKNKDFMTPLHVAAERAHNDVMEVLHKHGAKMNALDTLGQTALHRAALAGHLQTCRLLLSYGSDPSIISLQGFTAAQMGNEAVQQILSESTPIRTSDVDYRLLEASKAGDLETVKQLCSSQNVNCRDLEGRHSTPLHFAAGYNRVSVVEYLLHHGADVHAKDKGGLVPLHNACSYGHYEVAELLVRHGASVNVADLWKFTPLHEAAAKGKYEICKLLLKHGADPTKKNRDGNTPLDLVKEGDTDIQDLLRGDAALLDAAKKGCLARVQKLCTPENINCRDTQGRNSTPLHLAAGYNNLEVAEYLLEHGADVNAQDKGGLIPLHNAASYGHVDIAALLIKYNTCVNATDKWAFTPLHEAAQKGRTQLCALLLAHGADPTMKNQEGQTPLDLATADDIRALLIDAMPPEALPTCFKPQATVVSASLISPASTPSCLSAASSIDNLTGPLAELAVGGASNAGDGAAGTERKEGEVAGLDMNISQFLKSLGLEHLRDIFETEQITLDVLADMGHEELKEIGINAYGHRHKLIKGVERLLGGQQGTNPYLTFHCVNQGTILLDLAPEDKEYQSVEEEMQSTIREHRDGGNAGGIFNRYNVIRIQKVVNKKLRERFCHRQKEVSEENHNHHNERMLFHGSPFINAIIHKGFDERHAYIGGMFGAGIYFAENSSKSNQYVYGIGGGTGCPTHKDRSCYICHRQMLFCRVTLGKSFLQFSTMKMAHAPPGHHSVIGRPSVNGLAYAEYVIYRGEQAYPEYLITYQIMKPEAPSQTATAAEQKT", "test": "Inhibition of human TNKS1 by fluorescence analysis"}, "[2]": {"target": "Poly [ADP-ribose] polymerase 1 (Homo sapiens, UniProt P09874)", "sequence (P09874 whole entry)": "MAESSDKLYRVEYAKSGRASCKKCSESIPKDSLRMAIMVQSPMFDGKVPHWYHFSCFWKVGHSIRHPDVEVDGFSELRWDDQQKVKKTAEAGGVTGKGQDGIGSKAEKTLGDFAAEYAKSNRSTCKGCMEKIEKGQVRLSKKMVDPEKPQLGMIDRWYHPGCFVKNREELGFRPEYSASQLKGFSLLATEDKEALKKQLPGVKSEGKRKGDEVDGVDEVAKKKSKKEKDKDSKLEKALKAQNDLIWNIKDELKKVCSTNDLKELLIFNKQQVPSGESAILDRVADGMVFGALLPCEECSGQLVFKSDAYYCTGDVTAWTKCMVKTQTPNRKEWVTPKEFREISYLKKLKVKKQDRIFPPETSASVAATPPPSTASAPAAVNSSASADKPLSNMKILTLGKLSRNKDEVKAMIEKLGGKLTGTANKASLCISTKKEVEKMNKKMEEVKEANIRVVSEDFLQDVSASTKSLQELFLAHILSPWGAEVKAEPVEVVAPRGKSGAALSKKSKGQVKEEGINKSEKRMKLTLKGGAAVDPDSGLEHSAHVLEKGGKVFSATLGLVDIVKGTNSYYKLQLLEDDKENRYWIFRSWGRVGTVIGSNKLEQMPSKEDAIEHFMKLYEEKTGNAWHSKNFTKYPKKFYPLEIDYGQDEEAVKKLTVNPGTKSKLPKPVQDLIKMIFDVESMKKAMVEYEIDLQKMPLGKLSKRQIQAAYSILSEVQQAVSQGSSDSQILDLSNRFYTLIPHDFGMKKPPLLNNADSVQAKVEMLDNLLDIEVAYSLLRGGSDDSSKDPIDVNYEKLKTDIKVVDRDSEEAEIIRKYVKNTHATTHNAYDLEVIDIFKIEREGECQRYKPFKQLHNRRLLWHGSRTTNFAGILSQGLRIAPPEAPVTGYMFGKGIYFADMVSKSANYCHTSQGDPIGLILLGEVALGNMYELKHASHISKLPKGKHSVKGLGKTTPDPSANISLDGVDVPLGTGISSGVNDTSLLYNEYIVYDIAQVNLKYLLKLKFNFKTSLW", "test": "Inhibition of human ARTD1 by fluorescence analysis"}, "Tankyrase 1/2": {"target": "T2, Tankyrase 1/2 (Homo sapiens, UniProt Q9H2K2+O95271)", "T2 sequence (Q9H2K2 whole entry)": "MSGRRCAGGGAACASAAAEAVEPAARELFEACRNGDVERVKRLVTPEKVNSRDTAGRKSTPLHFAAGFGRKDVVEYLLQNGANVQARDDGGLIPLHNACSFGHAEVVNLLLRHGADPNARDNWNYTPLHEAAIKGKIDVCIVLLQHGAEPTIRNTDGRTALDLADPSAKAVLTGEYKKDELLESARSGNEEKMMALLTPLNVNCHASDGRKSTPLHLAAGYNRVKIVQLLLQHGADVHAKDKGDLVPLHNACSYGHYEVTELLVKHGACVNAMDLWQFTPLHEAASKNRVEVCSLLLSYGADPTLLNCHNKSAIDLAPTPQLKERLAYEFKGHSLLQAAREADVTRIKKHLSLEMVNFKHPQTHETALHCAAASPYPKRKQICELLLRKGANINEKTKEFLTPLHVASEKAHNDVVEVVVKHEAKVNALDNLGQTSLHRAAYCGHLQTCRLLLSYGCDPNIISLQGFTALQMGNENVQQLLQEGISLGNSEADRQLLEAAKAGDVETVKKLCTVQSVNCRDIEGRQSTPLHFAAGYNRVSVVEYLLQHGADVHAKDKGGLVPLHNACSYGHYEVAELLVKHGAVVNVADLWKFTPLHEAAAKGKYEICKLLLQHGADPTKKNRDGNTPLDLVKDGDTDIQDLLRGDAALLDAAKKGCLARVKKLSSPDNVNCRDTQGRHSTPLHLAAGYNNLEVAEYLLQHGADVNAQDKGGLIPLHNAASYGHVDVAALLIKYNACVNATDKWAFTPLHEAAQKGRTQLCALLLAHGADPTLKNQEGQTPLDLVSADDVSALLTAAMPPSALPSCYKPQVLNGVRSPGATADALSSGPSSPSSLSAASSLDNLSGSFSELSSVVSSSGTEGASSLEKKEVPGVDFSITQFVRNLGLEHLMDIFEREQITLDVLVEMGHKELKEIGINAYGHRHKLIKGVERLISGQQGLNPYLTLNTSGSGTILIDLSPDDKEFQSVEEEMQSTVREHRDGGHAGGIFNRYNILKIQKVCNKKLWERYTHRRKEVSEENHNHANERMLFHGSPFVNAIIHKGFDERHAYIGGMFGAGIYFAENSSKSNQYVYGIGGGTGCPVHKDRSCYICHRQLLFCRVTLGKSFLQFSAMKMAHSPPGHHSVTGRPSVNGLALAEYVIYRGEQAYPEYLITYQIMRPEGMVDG", "T2 sequence (O95271 whole entry)": "T1 sequence (O95271 whole entry)", "test": "Inhibition of tankyrase in WNT3a-stimulated human HEK293 cells by luciferase reporter gene assay", "assay_type": "cell-based"}}}
{"compound": "COc1ccc(C2(CNC(=O)c3ccc(NC(=O)c4ccco4)cc3Cl)CCOCC2)cc1", "values": [{"measurement": "IC50", "setting": "[1]", "value": 0.57, "unit": "µM"}, {"measurement": "IC50", "setting": "[2]", "value": "> 100", "unit": "µM"}, {"measurement": "IC50", "setting": "Tankyrase 1/2", "value": 0.36, "unit": "µM"}]}
